Laboratory results published in US12496348B2, “Small molecule target bromo/acetyl proteins and uses thereof” (DANA-FARBER CANCER INSTITUTE, INC., priority 2019, dated 2025).

How the values were obtained:
Format in all cases: cell-based
BRD2/3/4 = assay: Western blot, selectivity against BRD2/3/4 in Kelly NB cells; conditions: 8 and 16 hours
Procedure: […] Whole cell lysates were collected using ice cold lysis buffer [300 mM NaCl, 50 mM Tris-HCl, pH 7.5, 0.5% Triton X-100, 1% sodium dodecyl sulfate (SDS), 1 mM dithiothreitol (DTT) (Invitrogen™), Roche®'s cOmplete™ protease inhibitor cocktail (1:000), 25 units/mL Benzonase®] and blotted at a protein concentration of 30 μg for EP300 and CBP and 10 μg for histone H3 and H3K27ac. Lysates were also blotted for bromodomain-containing protein 4 (BRD4). Lysates were resolved in NuPAGE™ 3-8% Tris-Acetate polyacrylamide gels (EA03785BOX, Invitrogen™) for EP300 and CBP and Bolt 4-12% Bis-Tris polyacrylamide gels (NW04125BOX, Invitrogen™) for H3 and H3K27ac. Afterwards, gels were transferred to nitrocellulose membranes (LC2001, Invitrogen™). Primary and secondary antibodies used included anti-p300 at 1:500 dilution (ab10485, Abcam®), anti-CBP at 1:500 dilution (D6C5, Cell Signaling Technology®), anti-Actin at 1:5000 dilution (3700S, Cell Signaling Technology®), anti-H3 at 1:1000 dilution (4499S, Cell Signaling Technology®), anti-H3K27ac at 1:1000 dilution (ab4729, Abcam®), IRDye®800 goat anti-rabbit at 1:5000 dilution (926-32211, LiCor® Biosciences) and IRDye®680 goat anti-mouse at 1:5000 dilution (926-68070, LiCor®). Visualization was performed on an Odyssey infrared imaging system (LiCor® Biosciences).

EP300 = EP300 (Homo sapiens (Human), UniProt Q09472); assay: Western blot for EP300 degradation in Kelly NB cells; conditions: 8 and 16 hours, at 3 μM
Procedure: (§1) […] Whole cell lysates were collected using ice cold lysis buffer [300 mM NaCl, 50 mM Tris-HCl, pH 7.5, 0.5% Triton X-100, 1% sodium dodecyl sulfate (SDS), 1 mM dithiothreitol (DTT) (Invitrogen™), Roche®'s cOmplete™ protease inhibitor cocktail (1:000), 25 units/mL Benzonase®] and blotted at a protein concentration of 30 μg for EP300 and CBP and 10 μg for histone H3 and H3K27ac. Lysates were also blotted for bromodomain-containing protein 4 (BRD4). Lysates were resolved in NuPAGE™ 3-8% Tris-Acetate polyacrylamide gels (EA03785BOX, Invitrogen™) for EP300 and CBP and Bolt 4-12% Bis-Tris polyacrylamide gels (NW04125BOX, Invitrogen™) for H3 and H3K27ac. Afterwards, gels were transferred to nitrocellulose membranes (LC2001, Invitrogen™). […] Visualization was performed on an Odyssey infrared imaging system (LiCor® Biosciences).

CBP = CBP (Homo sapiens (Human), UniProt Q92793); assay: Western blot for CBP degradation in Kelly NB cells; conditions: 8 and 16 hours, at 3 μM
Procedure: as §1

Chain of EP300 (Q09472 whole entry): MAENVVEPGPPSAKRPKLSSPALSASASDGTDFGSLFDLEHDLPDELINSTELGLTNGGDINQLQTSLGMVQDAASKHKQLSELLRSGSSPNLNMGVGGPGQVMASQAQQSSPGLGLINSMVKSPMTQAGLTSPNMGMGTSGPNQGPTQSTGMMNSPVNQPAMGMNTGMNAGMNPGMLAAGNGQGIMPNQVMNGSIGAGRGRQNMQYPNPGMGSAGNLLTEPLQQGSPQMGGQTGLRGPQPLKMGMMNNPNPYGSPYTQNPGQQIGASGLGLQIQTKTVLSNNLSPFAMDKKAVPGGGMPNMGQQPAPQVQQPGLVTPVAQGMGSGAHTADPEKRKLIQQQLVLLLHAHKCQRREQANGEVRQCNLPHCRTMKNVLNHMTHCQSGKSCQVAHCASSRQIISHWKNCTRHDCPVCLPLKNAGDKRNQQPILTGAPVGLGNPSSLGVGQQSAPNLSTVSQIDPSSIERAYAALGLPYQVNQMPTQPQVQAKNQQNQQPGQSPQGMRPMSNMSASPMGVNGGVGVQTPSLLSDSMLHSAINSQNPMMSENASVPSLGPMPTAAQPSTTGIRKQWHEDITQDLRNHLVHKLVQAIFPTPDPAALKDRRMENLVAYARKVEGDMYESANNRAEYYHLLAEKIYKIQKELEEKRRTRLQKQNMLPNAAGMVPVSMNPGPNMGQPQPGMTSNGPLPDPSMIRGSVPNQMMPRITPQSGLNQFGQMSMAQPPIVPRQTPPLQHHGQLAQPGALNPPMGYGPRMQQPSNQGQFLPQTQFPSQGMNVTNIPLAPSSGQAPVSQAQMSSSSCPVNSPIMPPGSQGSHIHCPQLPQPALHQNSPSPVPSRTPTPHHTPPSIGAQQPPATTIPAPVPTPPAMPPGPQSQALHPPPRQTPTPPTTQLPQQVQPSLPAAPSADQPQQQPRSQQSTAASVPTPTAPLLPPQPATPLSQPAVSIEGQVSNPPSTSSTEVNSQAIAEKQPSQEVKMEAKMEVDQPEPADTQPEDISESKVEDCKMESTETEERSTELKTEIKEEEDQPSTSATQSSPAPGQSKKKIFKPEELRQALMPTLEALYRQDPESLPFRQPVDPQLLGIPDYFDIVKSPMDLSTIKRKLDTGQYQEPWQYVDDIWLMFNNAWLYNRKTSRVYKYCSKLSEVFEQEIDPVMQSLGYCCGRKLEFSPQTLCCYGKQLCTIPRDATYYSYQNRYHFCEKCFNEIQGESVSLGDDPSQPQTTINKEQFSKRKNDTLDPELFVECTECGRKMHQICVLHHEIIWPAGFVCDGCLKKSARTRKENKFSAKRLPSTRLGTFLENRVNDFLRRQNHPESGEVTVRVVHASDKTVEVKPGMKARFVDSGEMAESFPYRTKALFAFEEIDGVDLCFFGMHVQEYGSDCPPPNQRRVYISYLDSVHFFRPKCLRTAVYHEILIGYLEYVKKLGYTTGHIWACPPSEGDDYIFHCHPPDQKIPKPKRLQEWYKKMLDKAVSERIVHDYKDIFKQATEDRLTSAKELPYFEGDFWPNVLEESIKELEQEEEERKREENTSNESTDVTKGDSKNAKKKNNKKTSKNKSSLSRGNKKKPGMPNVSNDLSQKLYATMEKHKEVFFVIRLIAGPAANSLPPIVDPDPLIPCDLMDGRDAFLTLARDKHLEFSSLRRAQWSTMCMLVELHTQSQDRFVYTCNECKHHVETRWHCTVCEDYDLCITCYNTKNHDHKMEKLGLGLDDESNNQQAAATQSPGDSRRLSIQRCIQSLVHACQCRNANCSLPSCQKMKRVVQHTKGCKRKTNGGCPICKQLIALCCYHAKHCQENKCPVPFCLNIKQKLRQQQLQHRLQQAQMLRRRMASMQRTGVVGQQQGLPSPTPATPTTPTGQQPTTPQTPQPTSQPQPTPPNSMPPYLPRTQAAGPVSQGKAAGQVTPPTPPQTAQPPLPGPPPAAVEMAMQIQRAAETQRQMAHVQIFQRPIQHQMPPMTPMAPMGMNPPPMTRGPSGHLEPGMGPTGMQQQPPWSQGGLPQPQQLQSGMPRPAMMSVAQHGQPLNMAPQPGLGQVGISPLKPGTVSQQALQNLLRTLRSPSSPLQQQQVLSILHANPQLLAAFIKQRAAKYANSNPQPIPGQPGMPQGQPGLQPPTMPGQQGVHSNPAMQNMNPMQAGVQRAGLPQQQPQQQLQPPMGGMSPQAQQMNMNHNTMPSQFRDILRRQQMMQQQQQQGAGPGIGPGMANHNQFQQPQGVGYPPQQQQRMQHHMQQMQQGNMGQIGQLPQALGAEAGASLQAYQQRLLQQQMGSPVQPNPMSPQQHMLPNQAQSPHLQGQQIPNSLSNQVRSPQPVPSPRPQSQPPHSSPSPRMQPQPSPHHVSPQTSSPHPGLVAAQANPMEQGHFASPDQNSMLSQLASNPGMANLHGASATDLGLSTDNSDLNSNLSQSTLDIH
Chain of CBP (Q92793 whole entry): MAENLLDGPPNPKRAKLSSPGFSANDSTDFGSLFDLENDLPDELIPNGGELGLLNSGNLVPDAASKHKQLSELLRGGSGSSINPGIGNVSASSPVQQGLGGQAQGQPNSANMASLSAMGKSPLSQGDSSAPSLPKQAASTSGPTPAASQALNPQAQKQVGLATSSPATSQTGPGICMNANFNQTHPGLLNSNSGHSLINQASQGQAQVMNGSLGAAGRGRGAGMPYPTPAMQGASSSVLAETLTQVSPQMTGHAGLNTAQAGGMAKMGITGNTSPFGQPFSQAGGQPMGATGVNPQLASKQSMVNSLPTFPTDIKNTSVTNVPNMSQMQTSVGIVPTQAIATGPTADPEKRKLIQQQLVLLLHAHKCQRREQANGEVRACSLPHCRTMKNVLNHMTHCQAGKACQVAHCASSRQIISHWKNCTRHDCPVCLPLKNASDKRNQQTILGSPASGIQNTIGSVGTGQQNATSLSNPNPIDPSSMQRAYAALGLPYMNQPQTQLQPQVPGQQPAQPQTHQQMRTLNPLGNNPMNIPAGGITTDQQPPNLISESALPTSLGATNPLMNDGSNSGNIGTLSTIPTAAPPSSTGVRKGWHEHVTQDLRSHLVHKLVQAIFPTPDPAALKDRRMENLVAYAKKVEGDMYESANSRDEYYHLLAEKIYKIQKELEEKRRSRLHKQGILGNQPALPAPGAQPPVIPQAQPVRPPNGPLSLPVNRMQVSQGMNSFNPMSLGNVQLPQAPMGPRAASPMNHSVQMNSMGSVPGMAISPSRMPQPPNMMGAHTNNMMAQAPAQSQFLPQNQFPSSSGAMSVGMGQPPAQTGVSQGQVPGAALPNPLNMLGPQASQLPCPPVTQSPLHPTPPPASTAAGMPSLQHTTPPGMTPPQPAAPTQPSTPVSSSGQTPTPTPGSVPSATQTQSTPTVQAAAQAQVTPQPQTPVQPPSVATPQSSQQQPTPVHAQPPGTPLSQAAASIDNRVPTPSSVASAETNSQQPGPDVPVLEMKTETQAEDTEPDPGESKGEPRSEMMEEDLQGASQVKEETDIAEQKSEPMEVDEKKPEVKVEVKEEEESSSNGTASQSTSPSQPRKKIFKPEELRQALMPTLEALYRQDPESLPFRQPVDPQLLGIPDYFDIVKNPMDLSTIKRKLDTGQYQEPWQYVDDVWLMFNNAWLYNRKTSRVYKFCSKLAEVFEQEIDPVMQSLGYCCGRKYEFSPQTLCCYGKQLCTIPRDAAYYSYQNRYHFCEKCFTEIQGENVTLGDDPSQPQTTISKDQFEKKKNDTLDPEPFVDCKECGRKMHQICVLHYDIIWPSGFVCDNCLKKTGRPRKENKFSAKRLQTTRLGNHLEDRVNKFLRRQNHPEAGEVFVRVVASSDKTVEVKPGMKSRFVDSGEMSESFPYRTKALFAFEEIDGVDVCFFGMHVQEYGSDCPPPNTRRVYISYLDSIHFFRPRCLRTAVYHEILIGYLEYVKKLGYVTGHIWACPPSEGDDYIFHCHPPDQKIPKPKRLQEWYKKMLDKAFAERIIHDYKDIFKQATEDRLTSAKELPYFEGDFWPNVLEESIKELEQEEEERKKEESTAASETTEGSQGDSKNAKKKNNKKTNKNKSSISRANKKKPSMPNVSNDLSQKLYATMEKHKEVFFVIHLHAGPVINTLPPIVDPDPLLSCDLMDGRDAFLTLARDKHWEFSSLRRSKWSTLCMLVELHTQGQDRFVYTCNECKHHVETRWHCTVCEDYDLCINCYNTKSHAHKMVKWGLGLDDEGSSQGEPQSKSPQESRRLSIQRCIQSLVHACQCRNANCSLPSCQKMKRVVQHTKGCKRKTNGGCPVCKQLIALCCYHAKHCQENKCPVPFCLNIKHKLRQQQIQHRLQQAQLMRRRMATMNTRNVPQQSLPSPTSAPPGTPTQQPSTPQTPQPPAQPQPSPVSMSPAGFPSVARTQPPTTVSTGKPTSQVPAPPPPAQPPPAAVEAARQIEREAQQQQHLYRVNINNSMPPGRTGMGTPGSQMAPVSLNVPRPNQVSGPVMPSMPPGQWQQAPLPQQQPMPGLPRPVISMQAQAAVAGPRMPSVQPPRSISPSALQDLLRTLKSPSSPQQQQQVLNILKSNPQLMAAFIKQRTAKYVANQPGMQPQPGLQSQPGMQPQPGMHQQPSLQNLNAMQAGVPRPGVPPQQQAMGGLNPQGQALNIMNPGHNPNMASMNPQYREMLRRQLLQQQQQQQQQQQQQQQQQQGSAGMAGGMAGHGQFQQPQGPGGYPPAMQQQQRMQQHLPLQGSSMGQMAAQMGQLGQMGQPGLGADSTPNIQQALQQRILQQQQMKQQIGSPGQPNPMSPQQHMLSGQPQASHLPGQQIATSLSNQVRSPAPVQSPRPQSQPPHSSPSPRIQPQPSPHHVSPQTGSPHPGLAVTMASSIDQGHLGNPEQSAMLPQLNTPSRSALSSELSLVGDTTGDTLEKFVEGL

Q: Which “selectivity of P300 and CBP degradation against BRD2/3/4” value (BRD2/3/4) does the source give for `C[C@@H]1CC(=O)Nc2cccc(-c3ccc4c(c3)c(-c3cnn(C(=O)CCCCCCCCCNc5cccc6c5C(=O)N(C5CCC(=O)NC5=O)C6=O)c3)nn4C)c2N1` (stereo partly drawn) [Compound 31, 2-(2,6-dioxopiperidin-3-yl)-4-((10-(4-(1-methyl-5-((R)-4-methyl-2-oxo-2,3,4,5-tetrahydro-1H-benzo[b][1,4]diazepin-6-yl)-1H-indazol-3-yl)-1H-pyrazol-1-yl)-10-oxodecyl)amino)isoindoline-1,3-dione] here?
A: selective

Q: And the “P300 degradation (immunoblot)” value (EP300)?
A: noticeable degradation

Q: And the “CBP degradation (immunoblot)” value (CBP)?
A: noticeable degradation
